According to patent US6600047B2, “Process for making amlodipine maleate” (Synthon BV, priority 2001, dated 2003):

melting point: 178 to 183 °C (dec.)
SMILES: CCOC(=O)C1=C(COCCNC(CC(=O)O)C(=O)O)NC(C)=C(C(=O)OC)C1c1ccccc1Cl (stereo not shown) [formula (1)]
